Data taken from patent US20040014694A1, “Use of docetaxel/doxorubicin/cyclophosphamide in adjuvant therapy” (priority 2002, published 2004).

Key:
[1] = In-house proprietary studies of docetaxel alone, overall response rate; format: in vivo; conditions: first line therapy
Method: Docetaxel alone, in several in-house proprietary studies, gave overall response rates of 40 to 43% (in second line therapy at a dose of 100 mg/m^2), 48% (in first line therapy at a dose of 75 mg/m^2) and 61% (in first line therapy at a dose of 100 mg/m^2).

[2] = test system: metastatic breast cancer (MBC); conditions: MBC progressing despite previous anthracycline containing chemotherapy; cited from earlier work
[3] = test system: advanced breast cancer; conditions: advanced breast cancer after anthracycline failure; cited from earlier work

For `CC(=O)O[C@@]12CO[C@@H]1C[C@H](O)[C@@]1(C)C(=O)[C@H](O)C3=C(C)[C@@H](OC(=O)[C@H](O)[C@@H](NC(=O)OC(C)(C)C)c4ccccc4)C[C@@](O)([C@@H](OC(=O)c4ccccc4)[C@H]21)C3(C)C` [Docetaxel, docetaxel], the overall response rate ([1]; dose 75 mg/m^2) is listed as 48%, the overall response rate ([1]; dose 100 mg/m^2) is listed as 61% and the “response, median time to progression (TTP), and survival compared with MV” value [2] is listed as “significantly superior to MV”. The “response rate and TTP compared with MF” value [3] was “superior to sequential methotrexate and 5-fluoruracil”.
